Consider two compounds from patent US9676715B2, “Bis-indolic derivatives, a process for preparing the same and their uses as a drug” (UNIVERSITE JOSEPH FOURIER, priority 2011, dated 2017).

The subject of assay [1] is Staphylococcus auricularis (CHUG-Saur1). Kind of assay: MIC, Staphylococcus panel (9.2). The assay is classed as cell-based. As to conditions: S. auricularis CHUG-Saur1, 4% DMSO, 18 h. On the procedure: (§1) The microdilution method recommended by the Clinical and Laboratory Standard Institute [M07-A9, Vol. 32, N° 2] was used. The activity of bis-indolic compounds 3f and 4 was tested against 35 Staphylococcus bacterial strains corresponding to 12 different species,
(§2) Bacterial inocula were prepared in Mueller Hinton broth (MH2, BioMérieux, Marcy L'Etoile, France). They were dispensed in 96 well microtiter plates (5×10^5 CFU/ml of final inoculum, 192 μL per well). Indolic compounds diluted in pure DMSO (8 μL per well, concentrated 25 times) were added to the wells as to obtain two-fold serial concentrations (0.5-32 mg/L of final concentrations). The final concentration of DMSO was 4% in each well.
(§3) To avoid cross-contaminations in microtiter plates, one row was left blank between each strain tested. Microplates were incubated for 18 h at 37° C. in ambient air. Then MICs were read visually and, in case of visual reading difficulties, confirmed using a spectrophotometer at a wavelength of 630 nm (BioTek® EL808 Absorbance Microplate Reader). MICs corresponded to the minimum bis-indolic compound concentration that allowed complete visual growth inhibition of bacteria. Drug-free cultures served as growth controls.
(§4) Coagulase-negative Staphylococcus strains included three reference strains purchased from CRBIP: a methicillin-susceptible S. epidermidis strain (ATCC 12228), a methicillin-resistant S. epidermidis strain (ATCC 49461), and a methicillin-susceptible S. sciuri strain (ATCC 29061). We also used clinical strains belonging to the following coagulase-negative Staphylococcus species: S. auricularis (two strains), S. warneri (five strains), S. capitis (five strains), S. haemolyticus (four strains), S. hominis (seven strains), S. cohnii (two strains), and S. saprophyticus, S. caprae and S. simulans (one strain each). Identification of the clinical strains was obtained using VITEK® 2 System (Biomérieux). The specified strain numbers correspond to an internal number of the bacterial strain collection of our laboratory.

The test system of assay [2] is Staphylococcus epidermidis ATCC 12228. In words: MIC, Staphylococcus panel (9.2). The assay is classed as cell-based. As to conditions: ATCC12228, S. epidermidis ATCC 12228, 4% DMSO, 18 h. On the procedure:
as §1, §2, §3, §4

Assay [3] relates to Staphylococcus haemolyticus (CHUG-Shae1). Kind of assay: MIC, Staphylococcus panel (9.2). It counts as cell-based. As to conditions: S. haemolyticus CHUG-Shae1, 4% DMSO, 18 h. On the procedure: as §1, §2, §3, §4
Assay [4] has as its system Staphylococcus hominis (CHUG-Shom1). In words: MIC, Staphylococcus panel (9.2). To be noted: S. hominis CHUG-Shom1, 4% DMSO, 18 h. The assay is classed as cell-based. On the procedure:
as §1, §2, §3, §4

The test system of assay [5] is Staphylococcus capitis (CHUG-Scap1). In words: MIC, Staphylococcus panel (9.2). As to conditions: S. capitis CHUG-Scap1, 4% DMSO, 18 h. It counts as cell-based. The method, then:
as §1, §2, §3, §4

Assay [6] concerns Staphylococcus epidermidis ATCC 49461. Kind of assay: MIC, Staphylococcus panel (9.2). It counts as cell-based. To be noted: ATCC49461, S. epidermidis ATCC 49461, 4% DMSO, 18 h. The method, then:
as §1, §2, §3, §4

In assay [7] the test system is Staphylococcus warneri (CHUG-Swar1). Kind of assay: MIC, Staphylococcus panel (9.2). The assay is classed as cell-based. To be noted: S. warneri CHUG-Swar1, 4% DMSO, 18 h. On the procedure:
as §1, §2, §3, §4

The subject of assay [8] is Staphylococcus sciuri ATCC 29061. Kind of assay: MIC, Staphylococcus panel (9.2). To be noted: Mammaliicoccus sciuri, ATCC29061; S. sciuri ATCC 29061; 4% DMSO, 18 h. The assay is classed as cell-based. The method, then: as §1, §2, §3, §4
In assay [9] the test system is S. aureus ATCC 25923. Kind of assay: Mutation frequency. It counts as cell-based, Staphylococcus aureus. On the procedure:
The mutation frequency is the number of individuals in a population with a particular mutation. In the present case, the mutation frequency was determined for a specific bacterial species and a specific indolic compound. Mueller Hinton agar plates containing various indolic compound concentrations, i.e., MIC×2, MIC×4, MIC×8, and MIC×16 were prepared. These plates were inoculated with various bacterial suspensions: 10^7, 10^8 or 10^9 UFC/mL. After 24 hours incubation of media at 37° C., CFU were numerated. The mutation frequency corresponded to the ratio of resistant mutants counted on a specific plate to the CFU count of the primary inoculum, expressed as a percentage.

The subject of assay [10] is Staphylococcus aureus MRSA 252. Kind of assay: MIC, Staphylococcus panel (9.2). The assay is classed as cell-based. To be noted: 18 h. The method, then:
as §1, §2, §3
(§5) Four Staphylococcus aureus strains were used. Two reference strains were provided by the French reference center for Staphylococcus spp. (Lyon, France), including one methicillin-susceptible (MSSA 476) and one methicillin-resistant (MRSA 252) S. aureus strains. The two remaining S. aureus strains were purchased from the CRBIP (Centre de Ressources Biologiques de l'Institut Pasteur): a vancomycin-intermediate strain (ATCC 106414) and a S. aureus strain (SA-1199B) resistant to fluoroquinolones due to overexpression of the NorA multidrug efflux pump.

Assay [11] deals with Staphylococcus aureus SA-1199B (NorA). In words: MIC, Staphylococcus panel (9.2). To be noted: 18 h. It counts as cell-based. On the procedure: as §1, §2, §3, §5
The subject of assay [12] is Staphylococcus aureus MSSA 476. In words: MIC, Staphylococcus panel (9.2). The assay is classed as cell-based. As to conditions: S. aureus MSSA 476, 4% DMSO, 18 h. The method, then:
as §1, §2, §3, §5

Assay [13] concerns S. aureus ATCC 25923. In words: Time-kill curves. It counts as cell-based, Staphylococcus aureus. The method, then: FIG. 2 presents the time-kill curve of compound 3f (tested at MIC×4, 8 or 16) obtained with S. aureus ATCC 25923.
The method described by Motyl et al. [M. Motyl, K. Dorso, J. Barrett, R. Giacobbe, Basic Microbiological Techniques Used in Antibacterial Drug Discovery. Current Protocols in Pharmacology. UNIT 13A.3. January, 2006] was used.
Killing curves corresponded to the measure of the kinetic of bactericidal activity of indolic compounds over time (time-kill curves) or after 18 h incubation of cultures according to different drug concentrations (concentration-killing curves). Sterile tubes were inoculated with: 1/sterile Mueller Hinton broth, to serve as negative control; 2/a drug-free bacterial inoculum, to serve as a growth control; 3/a bacterial inoculum (10^5 CFU/mL of final concentration) with various concentrations of the tested indolic compound. The tubes were incubated at 37° C. with agitation (50 rpm). Bacterial inocula are determined in each tube using the CFU count method at the beginning of the experiments, and then after 18 h for concentration-killing curves, or after 1 h, 2 h, 4 h, 8 h and 18 h for time-kill curves. A significant bactericidal effect corresponds to reduction of the initial bacterial load of 3 logs or more at any time of incubation.

In brackets after ≈: the same amount, converted by molar mass. Some results are limits rather than exact numbers.

A word on the MIC: it is the least concentration at which growth counts as inhibited. Higher therefore signals a less susceptible organism.

With `CC(C)(C)OC(=O)NCC(NC(=O)c1c[nH]c2ccc(Br)cc12)c1c[nH]c2ccc(Br)cc12` (centres unmarked) [Compound 3f, tert-Butyl(2-(5-bromo-1H-indol-3-yl)-2-(5-bromo-1H-indolyl-3-carboxamido)ethyl)carbamate], the MIC in assay [1] is 2 µg/mL (≈ 3.47 µM); in [2], 2 µg/mL (≈ 3.47 µM); in [3], 4 µg/mL (≈ 6.94 µM); in [4], 4 µg/mL (≈ 6.94 µM); in assay [5], 4 µg/mL (≈ 6.94 µM); in assay [6] it was 2 µg/mL (≈ 3.47 µM). The MIC in assay [7] was 2 µg/mL (≈ 3.47 µM); in assay [8], 4 µg/mL (≈ 6.94 µM); in assay [10], 2 µg/mL (≈ 3.47 µM); in assay [11], 2 µg/mL (≈ 3.47 µM); in assay [12] it was 2 µg/mL (≈ 3.47 µM). Besides, the mutation frequency in the assay with S. aureus ATCC 25923 [9] is 2×10^−9. For the same compound, the “bacterial regrowth (time-kill curve)” value with S. aureus ATCC 25923 [13] (4×MIC, incubation prolonged to 18 h) is “progressive bacterial regrowth”. The “bactericidal activity (time-kill curve)” value with S. aureus ATCC 25923 [13] (after 8 h incubation, 4×, 8× and 16× the MIC) is given as “significant bactericidal activity”.

Consider `CC(NC(=O)c1c[nH]c2ccc(Br)cc12)c1c[nH]c2ccc(Br)cc12` (centres unmarked) [Compound 4, 5-Bromo-N-(1-(5-bromo-1H-indol-3-yl)ethyl)-1H-indole-3-carboxamide], for which the MIC in assay [1] stood at 1 µg/mL (≈ 2.17 µM); in assay [2], 1 µg/mL (≈ 2.17 µM); in assay [3], 2 µg/mL (≈ 4.34 µM); in assay [4], 1 µg/mL (≈ 2.17 µM); in assay [5] it was 2 µg/mL (≈ 4.34 µM); in assay [6], 1 µg/mL (≈ 2.17 µM). Further, the minimum inhibitory concentration (MIC) came out at 1 µg/mL (≈ 2.17 µM) in assay [7]; 2 µg/mL (≈ 4.34 µM) in assay [8]; 2 µg/mL (≈ 4.34 µM) in assay [10]; 2 µg/mL (≈ 4.34 µM) in assay [11]; 1 µg/mL (≈ 2.17 µM) in assay [12]. In addition, the mutation frequency in the assay on S. aureus ATCC 25923 [9] is on record as < 1.5×10^−10.
